Data on 3 substances can be found in US8987526B2, “Partially halogenated, hydroxylated fullerene and allergen adsorbent using the same” (Osaka University, priority 2010, dated 2015).

For this experiment, the target named is T1, cedar pollen allergen (Cry j1) (Cryptomeria japonica, UniProt P18632).
T1 sequence (P18632 22-374): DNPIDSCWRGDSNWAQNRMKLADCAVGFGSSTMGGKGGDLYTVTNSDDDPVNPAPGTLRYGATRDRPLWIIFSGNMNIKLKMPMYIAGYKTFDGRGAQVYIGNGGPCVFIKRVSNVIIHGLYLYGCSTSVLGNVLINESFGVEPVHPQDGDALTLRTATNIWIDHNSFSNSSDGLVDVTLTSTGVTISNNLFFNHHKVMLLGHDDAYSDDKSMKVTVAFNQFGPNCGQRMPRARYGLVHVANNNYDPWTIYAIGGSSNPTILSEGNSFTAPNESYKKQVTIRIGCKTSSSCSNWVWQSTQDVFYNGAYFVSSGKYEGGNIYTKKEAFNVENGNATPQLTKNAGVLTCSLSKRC
Briefly: Function test of the sample to cedar pollen allergen (Cry j1): allergen adsorption, supernatant measured by sandwich ELISA. The format is binding. On the procedure: A 1% (by weight/volume) sample solution was prepared from each of the compounds synthesized in Examples 1 to 5, an allergen (Cry j1) dissolved into a phosphate buffer solution was added into the sample solution so as to give 100 ng/mL of the concentration thereof, and then, they were mixed by using a vortex; thereafter, reaction was carried out with shaking the mixture at 4° C. The solution was recovered at the respective predetermined intervals ([…]); and a supernatant thereof after centrifugal separation was analyzed as to the allergen concentration (A) by using a sandwich ELISA method (Enzyme-Linked Immunosorbent Assay). […] Reduction rate (%)=(B−A)/B×100
Specific procedure of the sandwich ELISA method will now be described. Anti-Cry j1 antibody is immobilized in each well of a microplate; and after cleaning it, post coating thereof is conducted. After further cleaning, a sample solution or a standard allergen solution is added thereinto to carry out a primary reaction. After cleaning thereof, an anti-Cry j1 biotin-labeled antibody is added thereinto to carry out a secondary reaction. After further cleaning thereof, an enzyme reagent streptavidin HRP is added thereinto; and after cleaning thereof, an o-phenylenedimaine substrate is added thereinto to carry out a chromogenic reaction. After termination of the reaction by adding dilute sulfuric acid, absorbance at the wavelength of 490 nm is measured by using a microplate reader. From a calibration curve predetermined by using the standard allergen solution, allergen concentration in each sample solution is obtained.

[1] abbreviates: 1% (w/v) sample solution, 100 ng/mL Cry j1, 4° C., at 5 minutes.

Turning to C60(OH)44.8H2O [reference compound], the allergen reduction rate (conditions similar to Test Example 1, after 60 minutes) is 6.2%.

C60Cl5 (OH)15.5H2O [Example 4] showed an allergen reduction rate under setting [1] of 90%.

Under setting [1], C60Cl15(OH)15.9H2O [Example 3] had an allergen reduction rate of 90%.
